Laboratory results from US20040137592A1, “Novel SMG-1” (Japan Science and Technology Agency, priority 2001, published 2004).
Read-outs that look alike come from different tables or passages of the source.

Tests used:
[1] = test system: BGG-39PTC mRNA in MEF-Tet OFF cells; experiment: BGG reporter mRNA accumulation (NMD) in MEF-Tet OFF cells, Northern blotting; format: cell-based; details: 4.5 hours, 50 ng/ml doxycycline, FIG. 29
Experimental: More particularly, MEF-Tet OFF cells were transfected with the reporter plasmid BGG-WT or the reporter plasmid BGG-39 PTC, and re-inoculated in eight dishes. The cells were then treated for 4.5 hours in the presence of 50 ng/ml doxycycline by various concentrations of caffeine (caff.), wortmannin (wort.), rapamycin (rap.), or cyclohexamide (CHX) shown in FIG. 29.
The Total RNA was analyzed by Northern blotting using the BGG probe. In FIG. 29, “BG WT” means the results in the case of use of the reporter plasmid BGG-WT, “BG PTC” means the results in the case of use of the reporter plasmid BGG-39PTC, and “GAPDH” means the results in the case of use of the cDNA of glyceryl aldehyde-3-phosphate dehydrogenase as a probe. Further, “cont.”, “caff.”, “wort.”, “rap.”, and “CHX” show the results of the control (that is, in the absence of wortmannin, caffeine, rapamycin, and cyclohexamide), the results in the presence of caffeine, the results in the presence of wortmannin, the results in the presence of rapamycin, and the results in the presence of cyclohexamide, respectively.

[2] = test system: hUpf1/SMG-2 in HeLa cells; experiment: mobility shift of hUpf1/SMG-2 in HeLa cells treated with okadaic acid, Western blotting; format: cell-based, human; details: various concentrations, 4.5 hours, FIG. 23
Experimental: The HeLa cells were treated with various concentrations of okadaic acid (OA; Calbiochem) for 4.5 hours, and then were recovered and dissolved in the 1×SDS sample buffer. After 6% SDS-PAGE was performed, Western blotting using an anti-hUpf1/SMG-2 antibody was performed to determine the mobility shift of hUpf1/SMG-2.

[3] = molecular target: T1, 6H-hSMG-1 (Homo sapiens, UniProt Q96Q15); experiment: in vitro kinase assay of 6H-hSMG-1 with hUpf1/SMG-2 fusion protein (S1096) as substrate; format: biochemical; details: substrate hUpf1/SMG-2 fusion protein (S1096), read-out: IC50, inhibition of the kinase activity of 6H-hSMG-1
T1 construct: made in house; host or cells: 293T cells transfected with SR6H-hSMG-1; immunoprecipitated with anti-polyhistidine antibody
T1 sequence (Q96Q15 111-3661): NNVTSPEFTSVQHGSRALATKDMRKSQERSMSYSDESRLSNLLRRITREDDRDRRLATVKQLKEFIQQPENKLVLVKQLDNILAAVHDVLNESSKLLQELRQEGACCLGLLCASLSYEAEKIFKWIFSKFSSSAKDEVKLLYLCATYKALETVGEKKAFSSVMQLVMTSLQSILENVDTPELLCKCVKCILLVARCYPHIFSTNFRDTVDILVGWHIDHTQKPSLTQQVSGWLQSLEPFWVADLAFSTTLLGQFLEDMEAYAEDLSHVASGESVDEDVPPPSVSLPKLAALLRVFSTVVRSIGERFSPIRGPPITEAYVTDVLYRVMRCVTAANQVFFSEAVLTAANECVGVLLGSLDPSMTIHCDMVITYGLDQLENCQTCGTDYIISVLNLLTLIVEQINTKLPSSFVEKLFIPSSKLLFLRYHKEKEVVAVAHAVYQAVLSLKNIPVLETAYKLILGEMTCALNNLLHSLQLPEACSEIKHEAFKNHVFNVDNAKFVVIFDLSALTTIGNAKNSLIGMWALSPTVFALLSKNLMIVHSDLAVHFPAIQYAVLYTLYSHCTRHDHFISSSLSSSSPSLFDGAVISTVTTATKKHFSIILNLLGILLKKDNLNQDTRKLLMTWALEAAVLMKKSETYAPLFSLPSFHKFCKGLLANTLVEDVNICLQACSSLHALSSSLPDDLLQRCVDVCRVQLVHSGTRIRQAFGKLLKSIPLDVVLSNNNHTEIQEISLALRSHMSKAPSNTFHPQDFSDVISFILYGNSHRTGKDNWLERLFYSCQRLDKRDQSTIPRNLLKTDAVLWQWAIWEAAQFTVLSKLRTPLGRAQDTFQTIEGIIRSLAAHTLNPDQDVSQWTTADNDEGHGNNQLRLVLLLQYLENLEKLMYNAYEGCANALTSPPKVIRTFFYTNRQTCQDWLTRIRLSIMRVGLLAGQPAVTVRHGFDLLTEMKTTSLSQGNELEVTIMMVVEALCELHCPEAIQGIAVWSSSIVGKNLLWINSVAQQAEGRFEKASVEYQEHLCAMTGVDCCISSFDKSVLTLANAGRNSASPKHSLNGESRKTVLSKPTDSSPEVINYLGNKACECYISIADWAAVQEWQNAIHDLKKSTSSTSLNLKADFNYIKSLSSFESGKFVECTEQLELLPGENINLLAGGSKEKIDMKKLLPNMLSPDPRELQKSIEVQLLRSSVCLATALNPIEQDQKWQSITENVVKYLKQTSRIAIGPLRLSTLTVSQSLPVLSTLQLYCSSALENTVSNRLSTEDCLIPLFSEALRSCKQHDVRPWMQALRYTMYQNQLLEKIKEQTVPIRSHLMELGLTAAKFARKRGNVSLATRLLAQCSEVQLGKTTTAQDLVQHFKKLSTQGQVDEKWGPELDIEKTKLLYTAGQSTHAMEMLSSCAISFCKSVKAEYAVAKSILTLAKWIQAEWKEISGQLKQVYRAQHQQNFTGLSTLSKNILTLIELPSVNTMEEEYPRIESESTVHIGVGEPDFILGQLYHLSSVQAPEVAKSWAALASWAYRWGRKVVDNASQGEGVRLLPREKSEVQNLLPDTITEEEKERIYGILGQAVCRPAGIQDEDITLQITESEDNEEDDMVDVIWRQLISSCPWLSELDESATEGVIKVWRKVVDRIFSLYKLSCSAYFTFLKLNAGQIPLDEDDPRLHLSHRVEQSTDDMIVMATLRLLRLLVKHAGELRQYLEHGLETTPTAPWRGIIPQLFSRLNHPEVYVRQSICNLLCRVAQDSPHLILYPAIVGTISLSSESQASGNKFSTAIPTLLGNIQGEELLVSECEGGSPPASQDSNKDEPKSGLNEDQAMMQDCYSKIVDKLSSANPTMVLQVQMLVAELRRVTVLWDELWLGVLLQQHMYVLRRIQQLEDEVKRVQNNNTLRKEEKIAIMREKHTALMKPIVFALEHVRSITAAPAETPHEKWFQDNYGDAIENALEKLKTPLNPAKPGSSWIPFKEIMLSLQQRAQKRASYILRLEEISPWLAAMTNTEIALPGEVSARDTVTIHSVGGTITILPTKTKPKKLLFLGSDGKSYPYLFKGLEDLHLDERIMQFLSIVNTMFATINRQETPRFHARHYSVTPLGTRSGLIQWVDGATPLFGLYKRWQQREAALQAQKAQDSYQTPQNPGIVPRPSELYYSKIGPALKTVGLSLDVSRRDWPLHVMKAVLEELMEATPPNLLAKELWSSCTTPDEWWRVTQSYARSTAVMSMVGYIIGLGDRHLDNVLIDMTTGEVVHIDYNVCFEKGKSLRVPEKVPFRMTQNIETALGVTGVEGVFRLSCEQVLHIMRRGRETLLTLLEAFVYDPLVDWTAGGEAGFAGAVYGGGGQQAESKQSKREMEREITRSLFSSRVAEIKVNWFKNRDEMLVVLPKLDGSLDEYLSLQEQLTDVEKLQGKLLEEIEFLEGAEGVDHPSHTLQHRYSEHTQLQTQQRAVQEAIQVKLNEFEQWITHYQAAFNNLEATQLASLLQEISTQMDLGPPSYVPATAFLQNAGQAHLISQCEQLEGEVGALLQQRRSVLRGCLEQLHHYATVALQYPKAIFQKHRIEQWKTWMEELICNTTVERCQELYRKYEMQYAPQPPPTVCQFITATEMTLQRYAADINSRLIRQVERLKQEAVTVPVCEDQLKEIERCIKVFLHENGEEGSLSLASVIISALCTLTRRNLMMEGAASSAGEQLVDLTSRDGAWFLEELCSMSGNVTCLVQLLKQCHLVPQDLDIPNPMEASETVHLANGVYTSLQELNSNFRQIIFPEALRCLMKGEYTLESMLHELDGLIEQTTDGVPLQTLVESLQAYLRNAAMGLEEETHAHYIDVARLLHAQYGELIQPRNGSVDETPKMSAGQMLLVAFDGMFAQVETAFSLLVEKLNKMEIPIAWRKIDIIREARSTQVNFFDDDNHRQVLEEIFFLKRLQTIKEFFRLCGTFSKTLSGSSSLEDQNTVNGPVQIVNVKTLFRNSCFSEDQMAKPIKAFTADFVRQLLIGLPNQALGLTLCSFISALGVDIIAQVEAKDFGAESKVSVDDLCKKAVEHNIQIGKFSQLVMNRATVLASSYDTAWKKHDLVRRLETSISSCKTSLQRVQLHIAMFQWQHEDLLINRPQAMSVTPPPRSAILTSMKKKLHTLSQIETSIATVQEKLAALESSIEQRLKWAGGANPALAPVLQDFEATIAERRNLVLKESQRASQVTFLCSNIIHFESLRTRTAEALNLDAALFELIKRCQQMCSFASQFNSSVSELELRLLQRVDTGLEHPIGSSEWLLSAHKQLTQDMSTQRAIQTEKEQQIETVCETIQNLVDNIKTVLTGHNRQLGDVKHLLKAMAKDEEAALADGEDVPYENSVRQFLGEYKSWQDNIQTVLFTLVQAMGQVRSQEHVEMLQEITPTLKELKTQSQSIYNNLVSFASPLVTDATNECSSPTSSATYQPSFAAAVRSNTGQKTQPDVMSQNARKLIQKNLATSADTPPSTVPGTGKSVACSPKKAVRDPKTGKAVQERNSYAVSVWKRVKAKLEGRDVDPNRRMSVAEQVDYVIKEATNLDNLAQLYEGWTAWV
Experimental: The immunoprecipitates obtained in the Example 6(1) were washed with a lysis buffer F containing 0.25 mol/L LiCl, and then washed two times with a 1×kinase reaction buffer [10 mmol/L HEPES-KOH (pH7.5), 50 mmol/L β-glycerophosphoric acid, 50 mmol/L NaCl, 1 mmol/L dithiothreitol (DTT), and 10 mmol/L MnCl2].
To each of the washed immunoprecipitates, 25 μL of 2×kinase reaction buffer (that is, two-fold concentrations of the above kinase reaction buffer) was added. The phosphorylation reaction was started by adding 10 mmol/L ATP and 370 kBq [γ-^32P] ATP (6000 Ci/mmol; Amersham Pharmacia Biotech) in equal amounts (25 μL) and continued, with occasional stirring, at 30° C. for 30 minutes. The final reaction amount was maintained at 50 μL, then 25 μL of a 4×SDS sample buffer was added to stop the reaction. SDS-PAGE was performed at gel concentrations of 5.5% and 12.5%, and then autoradiography was carried out to detect the phosphorylated proteins. The phosphorylation strength of each protein was measured by an Image Analyzer BAS2000 (Fuji Film).
More particularly, 6H-hSMG-1 was prepared in accordance with the procedure described in Example 7(3). In the presence of various concentrations of wortmannin or caffeine shown in FIG. 26 and FIG. 27, the hUpf1/SMG-2 fusion protein (S1096) prepared in Example 9(3) was used as the substrate, to perform an in vitro kinase assay. […]

[4] = test system: hUpf1/SMG-2 phosphorylation in HeLa cells; format: cell-based, human; details: 30 min pretreatment, then 4.5 hours with 50 nmol/L okadaic acid, FIG. 28
Experimental: HeLa cells were pretreated for 30 minutes in the presence or absence of various concentrations of wortmannin, caffeine, or rapamycin shown in FIG. 28. Next, the cells were treated for 4.5 hours in the presence of wortmannin, caffeine, or rapamycin and in the presence or absence of 50 nmol/L okadaic acid. Cell lysates were prepared and analyzed by Western blotting using the anti-Upf1/SMG-2 antibody.
Further, “hUPF1-P” means phosphorylated hUpf1/SMG-2, while “hUPF1” means unphosphorylated hUpf1/SMG-2.

Q: For `C[C@@H]1C[C@@H]([C@H](O)CC2CC(=O)NC(=O)C2)C(=O)[C@@H](C)C1` [CHX, cyclohexamide], which “inhibition of NMD” value [1] is on record?
A: inhibited NMD

Q: Which “upwardly shifted (phosphorylated) band of hUpf1/SMG-2” value [2] does the source give for `C=C1[C@@H](O)[C@@H]2O[C@]3(CC[C@H](/C=C/[C@@H](C)[C@@H]4CC(C)=C[C@@]5(O[C@H](C[C@@](C)(O)C(=O)O)CC[C@H]5O)O4)O3)CC[C@H]2O[C@@H]1[C@@H](O)C[C@H](C)[C@H]1O[C@@]2(CCCCO2)CC[C@H]1C` [okadaic acid] here?
A: upwardly shifted band of hUpf1/SMG-2 appears

Q: With `COC[C@H]1OC(=O)c2coc3c2[C@@]1(C)C1=C(C3=O)[C@@H]2CCC(=O)[C@@]2(C)C[C@H]1OC(C)=O` [wortmannin] as the molecule, how does the IC50 ([3]; FIG. 26) read?
A: ~0.06 µM

Q: `Cn1c(=O)c2c(ncn2C)n(C)c1=O` [caffeine] was tested. Which IC50 ([3]; FIG. 27) did it give?
A: ~300 µM

Q: What about the “inhibition of the upward shift of hUpf1/SMG-2” value [4] of the same molecule?
A: inhibited the upward shift

Q: And the “accumulation of BGG 39PTC mRNA” value [1]?
A: resulted in the accumulation of BGG 39PTC
